# Measured values taken from patent US12662714B2, “Method for separation of adjacent lanthanide elements” (UT-Battelle, LLC, priority 2022, dated 2026).
# Experiments:
# [1] = Solvent extraction of Lns, distribution ratio of Sm; conditions: 13 mM Ligand 2 used instead of ligand 1; 0.1 M DGA; 1 M HNO3; 1 h
# [2] = Solvent extraction of Lns, distribution ratio of La; conditions: 1 M HNO3, 1 h
# Method: (§1) General procedure: a 500 microliter (μL) aqueous phase consisting of 7 mM Ln(III) (0.5 mM of each Ln(III)) in 1 M HNO3 without or with aqBLPhen 1 (3, 13, or 25 mM) was contacted with an equal volume of organic phase containing 0.1 M DGA (3, 4, or 5). The two phases were contacted in a 1:1 ratio of organic/aqueous by end-over-end rotation in individual 1.8 mL capacity snap-top Eppendorf tubes using a rotating wheel in an airbox set at 25.5±0.5° C. Contacts were performed in triplicate with a contact time of 1 hour. The samples were centrifuged at 1811 g for 2 min at room temperature to separate the phases. Each triplicate was then sub-sampled, using a 300 μL aliquot of the aqueous phase transferred to individual polypropylene tubes and diluted with 2% HNO3 for analysis using ICP-MS or ICP-OES. Two samples of the initial lanthanide solution were similarly prepared.
# (§2) The ability of 1 and DGA to separate Lns was evaluated using a two-component, immiscible solvent system: nitric acid (aqueous phase containing 1) and n-dodecane with 10 vol % 1-octanol (oil phase containing DGA). The amount of Ln partitioned from the aqueous phase into the oil phase was measured using inductively coupled plasma optical emission spectroscopy or mass spectrometry. The Ln concentration in each phase was then used to calculate the separation efficiency.
# (§3) The percentage of Lns in the aqueous and the oil phases is presented in FIGS. 1a-1i. for each DGA in the absence and presence of the aqueous complexant 1 (E=([Ln1]/[Ln1]0)×100%). The distribution ratios (i.e., D=[Ln1]org/[Ln1]aq) for select Lns are listed in Table 1, which also include selectivities (i.e., SFLn1/Ln2=DLn1/DLn2), for several Ln pairs. An efficient separation of Lns was achieved when DLn1>1 and DLn2<1 or ELn1>50% and ELn2<50%. […] Neither of the three DGAs can separate Lns in a single extraction stage.
# [3] = Solvent extraction of Lns, separation factor Dy/Nd; conditions: 13 mM Ligand 2 used instead of ligand 1; 0.1 M DGA; 1 M HNO3; 1 h
# [4] = Solvent extraction of Lns, separation factor Sm/Nd; conditions: 0.1 M DGA, 1 M HNO3, 1 h
# Method: as §1, §2, §3
# [5] = Solvent extraction of Lns, separation factor Tb/Gd; conditions: 0.1 M DGA, 1 M HNO3, 1 h
# Method: as §1, §2, §3
# [6] = Solvent extraction of Lns, separation factor Dy/Nd; conditions: 0.1 M DGA, 1 M HNO3, 1 h
# Method: as §1, §2, §3
# [7] = Solvent extraction of Lns, separation factor Nd/Pr; conditions: 13 mM Ligand 2 used instead of ligand 1; 0.1 M DGA; 1 M HNO3; 1 h
# [8] = Optimized separation of adjacent Ln pair Nd-Pr with 1 and Ligand 3
# Method: The synergistic use of 1 and Ligand 3 was further optimized to maximize the separation of one adjacent Ln pair Nd—Pr using the percentage of Ln extracted as a guide. The separation of Nd and Pr reached equilibrium in less than 1 hour, and the D values for both increased at higher HNO3 and Ligand 3 concentrations (FIGS. 3b and 3c). Ligand 3, being a neutral ligand, requires co-extraction of counterions (i.e., three NO3^−) with Ln; thus, the extraction of Lns with DGA is favored at high nitrate concentration, and the process is reversed at low anion concentration.
# The highest selectivity of 4.9±0.2 for Nd—Pr pair was obtained when separating 2.5 mM Nd and Pr, each using 13 mM of 1 in 1 M HNO3 with 0.1 M of Ligand 3 in the oil phase and equilibrating for 30 min at 25.5° C. Next, the recovery of Nd and Pr from each phase after extraction using the 1-Ligand 3-HNO3 system was investigated. […] The charged ligand (CO3^2−) outcompetes neutral ligand 1 in complexing with Ln ions; furthermore, the thermodynamics of the Ln2(CO3)3 formation is highly favorable due to high crystal lattice energy of the salt. The identity of the precipitate was confirmed using Fourier-transform infrared spectroscopy (FTIR), and the results are in good agreement with commercially available Pr and Nd carbonate salts. Ligand 1 remains in the aqueous solution that can be further recycled in the lanthanide separation process.
# [9] = Solvent extraction of Lns, separation factor Gd/La; conditions: for SFGd/La separation factor: 0.1 M DGA, 1 M HNO3, 1 h
# Method: as §1, §2, §3
# [10] = Solvent extraction of Lns, distribution ratio of Nd; conditions: 13 mM Ligand 2 used instead of ligand 1; 0.1 M DGA; 1 M HNO3; 1 h
# [11] = Solvent extraction of Lns, distribution ratio of Gd; conditions: 0.1 M DGA, 1 M HNO3, 1 h
# Method: as §1, §2, §3
# [12] = Extraction of 14 Lns from aqueous phase into oil phase; conditions: 0.1 M DGA alone; 14 Lns 0.5 mM each; 1 M HNO3
# Method: as §1, §2, §3
# [13] = Solvent extraction of Lns, separation factor Gd/La; conditions: 13 mM Ligand 2 used instead of ligand 1; 0.1 M DGA; 1 M HNO3; 1 h
# [14] = Solvent extraction of Lns, distribution ratio of Sm; conditions: 0.1 M DGA, 1 M HNO3, 1 h
# Method: as §1, §2, §3
# [15] = Solvent extraction of Lns, distribution ratio of Nd; conditions: 0.1 M DGA, 1 M HNO3, 1 h
# Method: as §1, §2, §3
# [16] = Solvent extraction of Lns, distribution ratio of Gd; conditions: 13 mM Ligand 2 used instead of ligand 1; 0.1 M DGA; 1 M HNO3; 1 h
# [17] = Solvent extraction of Lns, separation factor Sm/Nd; conditions: 13 mM Ligand 2 used instead of ligand 1; 0.1 M DGA; 1 M HNO3; 1 h
# [18] = Solvent extraction of Lns, separation factor Nd/Pr; conditions: 0.1 M DGA, 1 M HNO3, 1 h
# Method: as §1, §2, §3
# [19] = Solvent extraction of Lns, distribution ratio of La; conditions: 13 mM Ligand 2 used instead of ligand 1; 0.1 M DGA; 1 M HNO3; 1 h
structure (smiles),measurement,setting,value
"CCCCCCCCN(C)C(=O)COCC(=O)N(C)CCCCCCCC [Ligand 3, N,N′-dimethyl-N,N′-di(n-octyl)diglycolamide]",DSm distribution ratio,[1],163
same,DLa distribution ratio,"[2]; [1] 0 mM, 0.1 M DGA in n-dodecane with 10 vol % 1-octanol, 0.5 mM each Ln",71
same,DLa distribution ratio,"[2]; [1] 3 mM, 0.1 M DGA",0.59
same,DLa distribution ratio,"[2]; [1] 13 mM, 0.1 M DGA",0.28
same,DLa distribution ratio,"[2]; [1] 25 mM, 0.1 M DGA",0.23
same,SFDy/Nd separation factor,[3],60
same,SFSm/Nd separation factor,[4]; [1] 0 mM,3.2
same,SFSm/Nd separation factor,[4]; [1] 3 mM,20
same,SFSm/Nd separation factor,[4]; [1] 13 mM,6.4
same,SFSm/Nd separation factor,[4]; [1] 25 mM,18
same,SFTb/Gd separation factor,[5]; 13 mM Ligand 2 used instead of ligand 1,1.6
same,SFTb/Gd separation factor,[5]; [1] 0 mM,1.1
same,SFTb/Gd separation factor,[5]; [1] 3 mM,2.0
same,SFTb/Gd separation factor,[5]; [1] 13 mM,3.0
same,SFTb/Gd separation factor,[5]; [1] 25 mM,3.0
same,SFDy/Nd separation factor,[6]; [1] 0 mM,4.7
same,SFDy/Nd separation factor,[6]; [1] 3 mM,352
same,SFDy/Nd separation factor,[6]; [1] 13 mM,451
same,SFDy/Nd separation factor,[6]; [1] 25 mM,1313
same,SFNd/Pr separation factor,[7],2.3
same,highest selectivity for Nd-Pr pair,"[8]; 2.5 mM Nd and Pr each, 13 mM of 1 in 1 M HNO3, 0.1 M Ligand 3 in oil phase, 30 min, 25.5° C.",4.9±0.2
same,time for the separation of Nd and Pr to reach equilibrium,[8]; 1 and Ligand 3,less than 1 hour
same,recovery of Nd and Pr from the spent oil phase,[8]; three consecutive contacts with an equal volume of deionized water,Near-quantitative recovery
same,SFGd/La separation factor,[9]; [1] 0 mM,36
same,SFGd/La separation factor,[9]; [1] 3 mM,2010
same,SFGd/La separation factor,[9]; [1] 13 mM,1992
same,SFGd/La separation factor,[9]; [1] 25 mM,1512
same,times higher selectivity for Gd over La than the TDdDGA-DOODA(C2) system,[9]; combination of 1 and Ligand 3,~2 times
same,times higher selectivity for Gd over La than the TODGA-DOODA(C2) system,[9]; combination of 1 and Ligand 3,20 times
same,DNd distribution ratio,[10],21.4
same,DGd distribution ratio,[11]; [1] 0 mM,2531
same,DGd distribution ratio,[11]; [1] 3 mM,1192
same,DGd distribution ratio,[11]; [1] 13 mM,552
same,DGd distribution ratio,[11]; [1] 25 mM,346
same,extraction of Lns from the aqueous phase into the oil phase,[12],nearly quantitatively extracted all Lns
same,SFGd/La separation factor,[13],136
same,DSm distribution ratio,[14]; [1] 0 mM,1795
same,DSm distribution ratio,[14]; [1] 3 mM,222
same,DSm distribution ratio,[14]; [1] 13 mM,68.1
same,DSm distribution ratio,[14]; [1] 25 mM,42.2
same,DNd distribution ratio,[15]; [1] 0 mM,558
same,DNd distribution ratio,[15]; [1] 3 mM,11.0
same,DNd distribution ratio,[15]; [1] 13 mM,10.7
same,DNd distribution ratio,[15]; [1] 25 mM,2.34
same,DGd distribution ratio,[16],360
same,SFSm/Nd separation factor,[17],7.6
same,SFNd/Pr separation factor,[18]; [1] 0 mM,2.1
same,SFNd/Pr separation factor,[18]; [1] 3 mM,4.0
same,SFNd/Pr separation factor,[18]; [1] 13 mM,4.2
same,SFNd/Pr separation factor,[18]; [1] 25 mM,3.2
same,DLa distribution ratio,[19],2.65
